Data set [1] relates to Radical scavenging activity. Nature of the data set: Antioxidant activity assessed as DPPH free radical scavenging activity at 0.9 mM after 10 mins. The class given is functional. In general terms: The DPPH test is a chemical assay of radical scavenging.
Data set [2] deals with Radical scavenging activity. Briefly: Antioxidant activity assessed as DPPH free radical scavenging activity at 0.9 mM after 20 mins. The class given is functional.
Data set [3] in a line: Cytotoxicity against human FL cells after 24 hrs. The class given is cell-based.
Data set [4] relates to Radical scavenging activity. Briefly: Antioxidant activity assessed as DPPH free radical scavenging activity at 1.8 mM after 20 mins. The class given is functional.
Data set [5] can be described thus: Selectivity index, CC50 for human HeLa Ohio-1 cells to IC50 for Human rhinovirus type 14. The class given is functional.
In data set [6] the test system is Echovirus E13. Briefly: Antiviral activity against Echovirus 13 in human FL cells assessed as inhibition of cytopathic effect relative to control. The class given is functional. (In general: Protection from cytopathic effect is a common read-out in antiviral testing.)
Data set [7] has as its system Radical scavenging activity. Nature of the data set: Antioxidant activity assessed as DPPH free radical scavenging activity at 1.8 mM after 10 mins. The class given is functional.
The next data set relates to HeLa. Nature of the data set: Cytotoxicity against human HeLa Ohio-1 cells.
Data set [8] relates to Radical scavenging activity. Nature of the data set: Antioxidant activity assessed as DPPH free radical scavenging activity at 3.6 mM after 10 mins. The class given is functional.
Data set [9] in a line: Cytotoxicity against human HeLa Ohio-1 cells. The class given is cell-based.
Data set [10] concerns Radical scavenging activity. Nature of the data set: Antioxidant activity assessed as DPPH free radical scavenging activity at 3.6 mM after 20 mins. The class given is functional.
The test system of data set [11] is Coxsackievirus B1. Briefly: Antiviral activity against Coxsackievirus B1 in human FL cells assessed as inhibition of cytopathic effect relative to control. The class given is functional.
Data set [12] relates to Poliovirus 1. Briefly: Antiviral activity against Poliovirus type 1 Lsc-2ab in human FL cells assessed as inhibition of cytopathic effect relative to control. The class given is functional.
Data set [13] deals with Echovirus E13. Nature of the data set: Antiviral activity against Echovirus 13 in human FL cells. To be noted: Enterovirus B. The class given is functional, organism-based.
Data set [14] in a line: Selectivity index, CC50 for human FL cells to IC50 for Poliovirus type 1 Lsc-2ab. The class given is functional.
The subject of data set [15] is Coxsackievirus B1. Briefly: Antiviral activity against Coxsackievirus B1 in human FL cells. To be noted: Enterovirus B. The class given is functional, organism-based.
The subject of data set [16] is Poliovirus 1. Nature of the data set: Antiviral activity against Poliovirus type 1 Lsc-2ab in human FL cells. The class given is functional, organism-based. To be noted: Enterovirus C.
Data set [17] is described as follows: Selectivity index, CC50 for human FL cells to IC50 for Echovirus 13. The class given is functional.
The nature of data set [18]: Selectivity index, CC50 for human FL cells to IC50 for Coxsackievirus B1. The class given is functional.

As a reminder, the CC50 is the concentration that lowers cell viability or growth by half. High values mean better tolerance by the cells, low ones harm at low concentration. A word on the IC50: it is the concentration that gives 50% inhibition. A higher IC50 goes with lower potency. For the compound `COc1cc2c(cc1OC)-c1c(OC)c(OC)c(CNC(=O)/C=C/c3ccccc3O)c3c1C(C2)N(C)CC3` (centres undefined), the Activity in data set [1] is 1.1%; in [2] it was 0.8%; in data set [4] it was 3.6%; in [7], 2.3%; in data set [8] it was 3.3%; in data set [10], 4.2%. The 50% cytotoxic concentration (CC50) at 24 h in data set [3] came out at 152 µM. In addition, the “Ratio CC50/IC50” value in [5] turned out to be 10.3. Besides, the “inhibition (INH)” value is reported as 0% in the data set on Echovirus E13 [6], 0% in the data set with Coxsackievirus B1 [11] and “<=25%” with Poliovirus 1 [12]. This compound also returned a cytotoxic concentration (CC50) in the data set with HeLa of 155 µM. In data set [9], this compound showed an IC50 of 15 µM.
Take `COc1cc(/C=C/C(=O)O)ccc1O`: the Activity in [1] was determined as 12%; in data set [2], 13.8%; in data set [4], 25.1%; in [7], 21%; in data set [8] it was 36.7%; in [10] it was 44.3%.
In the case of `Cc1cc(CCCCCCCOc2ccc(C3=NCCO3)cc2)on1` [DISOXARIL], the 50% inhibitory concentration (IC50) in the data set with Echovirus E13 [13] worked out at 1.3 µM; with Coxsackievirus B1 [15], 2 µM; with Poliovirus 1 [16], 2 µM; in data set [9] it was 1.5 µM. For the same compound, the CC50 at 24 h in [3] worked out at 25 µM. The “Ratio CC50/IC50” value in data set [5] stood at 14; in data set [14] it was 12.5; in data set [17], 19.2; in [18], 12.5. Besides, half-maximal cytotoxicity in the data set with HeLa (CC50) was put at 21 µM.
Turning to `COc1cc2c(cc1OC)-c1c(OC)c(OC)cc3c1[C@H](C2)N(C)CC3` [GLAUCINE], the IC50 came out at 60 µM in the data set with Echovirus E13 [13], 21 µM with Coxsackievirus B1 [15], 60 µM in the data set on Poliovirus 1 [16] and 22 µM in [9]. Further, the Activity is 0.8% in data set [1]; 1.2% in [2]; 1.3% in data set [4]; 1.1% in data set [7]; 1.4% in data set [8]; 1.6% in data set [10]. The compound also came in with a CC50 at 24 h in [3] of 115 µM. The “Ratio CC50/IC50” value worked out at 8.3 in data set [5], 1.9 in data set [14], 1.9 in data set [17] and 5.5 in data set [18]. For the same compound, in the data set with HeLa, it took 182 µM to reach half-maximal cytotoxicity (CC50).
As for `O=C(O)/C=C/c1ccc(O)cc1`, the Activity in data set [1] was 2.1%; in data set [2], 2.9%; in [4], 4.7%; in [7] it was 3.7%; in data set [8] it was 4.5%; in [10], 6.1%.
Consider `COc1cc(/C=C/C(=O)O)cc(OC)c1O`, for which the Activity is 16.1% in data set [1]; 17.2% in data set [2]; 31.9% in data set [4]; 26.5% in data set [7]; 69% in data set [8]; 69.6% in data set [10].
For `COc1cc2c(cc1OC)-c1c(OC)c(OC)cc3ccnc(c13)C2=O` [OXOGLAUCINE], the IC50 was 0.5 µM with Echovirus E13 [13], 2.5 µM in the data set on Coxsackievirus B1 [15], 1.2 µM with Poliovirus 1 [16] and 0.3 µM in [9]. Further, in data set [3], half-maximal cytotoxicity (CC50 at 24 h) was put at 52 µM. In addition, the “Ratio CC50/IC50” value is 170 in [5], 43.3 in data set [14], 104 in data set [17] and 20.8 in data set [18]. Half-maximal cytotoxicity in the data set with HeLa (CC50) was put at 51 µM.
As to `COc1cc2c(cc1OC)-c1c(OC)c(OC)c(CN)c3c1C(C2)N(C)CC3` (centres undefined), the Activity came to 1.6% in [1]; 2.5% in [2]; 3% in data set [4]; 2.2% in data set [7]; 2.9% in data set [8]; 3.8% in [10].
`COc1cc2c(cc1OC)-c1c(OC)c(OC)c(CNC(=O)/C=C/c3ccc(O)cc3)c3c1C(C2)N(C)CC3` (centres undefined): the IC50 in the data set with Echovirus E13 [13] worked out at 32 µM; in data set [9], 13 µM. The Activity in data set [1] came to 1.8%; in [2], 1.8%; in [4], 2.5%; in data set [7], 2%; in data set [8], 3.2%; in data set [10] it was 4.8%. In data set [3], half-maximal cytotoxicity (CC50 at 24 h) was put at 160 µM. Besides, the “Ratio CC50/IC50” value in data set [5] amounted to 11; in [17], 5. The compound further came in with a CC50 in the data set on HeLa of 143 µM. Further, the “inhibition (INH)” value is listed as 0% with Coxsackievirus B1 [11] and under 50% in the data set with Poliovirus 1 [12].
Turning to `O=C(O)/C=C/c1ccccc1O`, the Activity turned out to be 2.1% in [1]; 2.4% in [2]; 2.7% in data set [4]; 2.2% in data set [7]; 3.3% in [8]; 3.6% in [10].
On to `COc1cc2c(cc1OC)-c1c(OC)c(OC)c(CNC(=O)/C=C/c3cc(OC)c(O)c(OC)c3)c3c1C(C2)N(C)CC3` (centres undefined), for which the Activity in data set [1] came to 8%; in [2], 10.5%; in data set [4] it was 18%; in [7] it was 14.4%; in data set [8], 26.3%; in data set [10], 31.6%. For the same compound, in [3], it took 112 µM to reach half-maximal cytotoxicity (CC50 at 24 h). Also, in data set [5], the “Ratio CC50/IC50” value is 4.5. For the same compound, the “inhibition (INH)” value in the data set with Echovirus E13 [6], in the data set with Coxsackievirus B1 [11] and with Poliovirus 1 [12] was 0% in each case. The compound further gave a CC50 in the data set with HeLa of 125 µM. Besides, in data set [9], the IC50 was found to be 28 µM.
For `COc1cc(/C=C/C(=O)NCc2c3c4c(c(OC)c2OC)-c2cc(OC)c(OC)cc2CC4N(C)CC3)ccc1O` (centres undefined), the Activity in data set [1] came to 8.3%; in data set [2] it was 10.1%; in [4], 19.4%; in data set [7] it was 16.6%; in data set [8], 31.2%; in data set [10], 36.1%. The compound further displayed a 50% cytotoxic concentration (CC50) at 24 h in [3] of 105 µM. Moreover, in [5], the “Ratio CC50/IC50” value stood at 9.4. The figures for the “inhibition (INH)” value with Echovirus E13 [6], with Coxsackievirus B1 [11] and with Poliovirus 1 [12] were “<=25%”, 0% and 0%, respectively. In the data set on HeLa, this compound displayed a CC50 of 113 µM. The same compound had an IC50 in [9] of 12 µM.

The values above are taken from ChEMBL document CHEMBL1155797, “Cinnamoyl- and hydroxycinnamoyl amides of glaucine and their antioxidative and antiviral activities” (Bioorg Med Chem, 2008).
